For the assay, the system named is Human skin fibroblasts. As to the kind of experiment: Ascorbic acid colorimetric assay in human skin fibroblasts, with or without alloxan-induced oxidative stress. Format: cell-based. The protocol: This example provides methods and results from studies evaluating the effect of ergothioneine on vitamin C in human fibroblast cells. Human skin fibroblasts were cultured for 18 hours in T-25 flasks. Cells were incubated with 1) control solution, 2) magnesium ascorbyl phosphate, or 3) magnesium ascorbyl phosphate+ergothioneine (1:100). Cells in each group were then treated for 6 hours with a) control solution or b) 500 μM alloxan to induce oxidative stress. All samples were assayed for ascorbic acid with an ascorbic acid colorimetric assay (Biovision catalog no. K671). Results are provided in the table below, where ascorbic acid content (nmol) in human skin fibroblasts per one million cells is reported.

Where [1] appears, read: 0.158% of test solution, no alloxan.
The mark [2] stands for this setting: 0.158% of test solution, with 500 uM Alloxan (6 hours, oxidative stress).
Where [3] appears, read: 0.5% of test solution, no alloxan.
The mark [4] stands for this setting: 0.5% of test solution, with 500 uM Alloxan (6 hours, oxidative stress).
Setting [5] is: 1.58% of test solution, no alloxan.
The mark [6] stands for this setting: 1.58% of test solution, with 500 uM Alloxan (6 hours, oxidative stress).
Setting [7] is: 5% of test solution, no alloxan.
Setting [8] is: 5% of test solution, with 500 uM Alloxan (6 hours, oxidative stress).

The text below walks through data of patent US11504355B2, “Ergothioneine compositions and methods for maintaining and/or increasing vitamin C levels in cells and organisms” (Mironova Innovations, LLC, priority 2018, dated 2022).

Regarding `O=C1O[C@H]([C@@H](O)CO)C([O-])=C1OP(=O)([O-])[O-].O=C1O[C@H]([C@@H](O)CO)C([O-])=C1OP(=O)([O-])[O-].[Mg+2].[Mg+2].[Mg+2]` [MAP solution, magnesium ascorbyl phosphate], the “ascorbic acid content in human skin fibroblasts per one million cells, Ave” value worked out at 10.14 nmol under setting [1]; 4.93 nmol under setting [2]; 21.51 nmol under setting [3]; 9.77 nmol under setting [4]; 49.89 nmol under setting [5]; 12.17 nmol under setting [6]. The “ascorbic acid content in human skin fibroblasts per one million cells, Ave” value runs as follows: under setting [7], 50.77 nmol; under setting [8], 13.37 nmol. Moreover, the “ascorbic acid content in human skin fibroblasts per one million cells, Sample A” value reads like this: under setting [1], 9.94 nmol; under setting [2], 4.84 nmol; under setting [3], 21.68 nmol; under setting [4], 9.54 nmol; under setting [5], 49.23 nmol; under setting [6], 11.88 nmol. Besides, the “ascorbic acid content in human skin fibroblasts per one million cells, Sample A” value is, setting by setting: under setting [7], 50.20 nmol; under setting [8], 13.37 nmol. Moreover, the “ascorbic acid content in human skin fibroblasts per one million cells, Sample B” value under setting [1] is recorded as 10.34 nmol; the “ascorbic acid content in human skin fibroblasts per one million cells, Sample B” value under setting [2] was found to be 5.01 nmol; the “ascorbic acid content in human skin fibroblasts per one million cells, Sample B” value under setting [3] came to 21.33 nmol; the “ascorbic acid content in human skin fibroblasts per one million cells, Sample B” value under setting [4] was 9.99 nmol; the “ascorbic acid content in human skin fibroblasts per one million cells, Sample B” value under setting [5] is given as 50.54 nmol; the “ascorbic acid content in human skin fibroblasts per one million cells, Sample B” value under setting [6] is 12.46 nmol. In addition, the “ascorbic acid content in human skin fibroblasts per one million cells, Sample B” value under setting [7] came out at 51.35 nmol and the “ascorbic acid content in human skin fibroblasts per one million cells, Sample B” value under setting [8] is on record as 13.37 nmol.
As for `C[N+](C)(C)[C@@H](Cc1c[nH]c(=S)[nH]1)C(=O)[O-]` [ergothioneine], where the note is “1:100 ergothioneine (EGT) to magnesium ascorbyl phosphate (MAP), following oxidative stress”, the “increase of ascorbic acid levels following oxidative stress” value was “up to 300%”. Moreover, under “FIG. 1, no oxidative stress”, the “ascorbic acid absorbed by the fibroblast cells with versus without ergothioneine” value is reported as “equally absorbed”. Besides, the “amount of ascorbic acid in fibroblast cells following oxidative stress in the presence of ergothioneine” value (FIG. 3, following oxidative stress) is “synergistically increased”. The “boost of vitamin C levels in a cell” value (synergistic amount of ergothioneine, summary of the examples) is “three-fold or more”.
